Assay results taken from ChEMBL document CHEMBL5126561, “New pyrazole-tetrazole hybrid compounds as potent α-amylase and non-enzymatic glycation inhibitors” (Bioorg Med Chem Lett, 2022).
Converted amounts (≈) assume the structure as drawn.

Legend:
Alpha amylase = biological target: T1, Alpha amylase (Homo sapiens, UniProt P0DUB6); test: Inhibition of alpha-amylase (unknown origin) assessed as reduction in conversion of starch to glucose preincubated for 10 mins followed by substrate addition and measured after 20 mins by DNSA reagent based spectrophotometric analysis
T1 sequence (P0DUB6 whole entry): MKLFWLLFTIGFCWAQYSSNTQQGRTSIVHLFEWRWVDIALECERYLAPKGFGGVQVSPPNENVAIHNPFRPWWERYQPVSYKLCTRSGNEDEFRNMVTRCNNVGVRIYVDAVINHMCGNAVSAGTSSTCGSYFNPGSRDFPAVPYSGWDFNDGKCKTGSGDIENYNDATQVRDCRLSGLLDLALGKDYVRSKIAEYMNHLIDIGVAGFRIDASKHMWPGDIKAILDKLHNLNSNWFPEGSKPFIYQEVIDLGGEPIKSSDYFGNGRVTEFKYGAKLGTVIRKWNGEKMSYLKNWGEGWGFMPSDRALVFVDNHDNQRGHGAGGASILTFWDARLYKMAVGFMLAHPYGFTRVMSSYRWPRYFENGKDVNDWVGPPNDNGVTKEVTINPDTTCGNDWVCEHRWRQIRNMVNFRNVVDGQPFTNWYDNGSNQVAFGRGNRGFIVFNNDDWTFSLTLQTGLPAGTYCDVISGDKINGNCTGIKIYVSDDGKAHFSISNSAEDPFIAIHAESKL

Hemoglobin HbA = Hemoglobin HbA (Homo sapiens, UniProt P68871+P69905); test: Inhibition of non-enzymatic glycation in hemoglobin (unknown origin) by spectrophotometric analysis; format: protein-complex assay
[1] = Lipophilicity, logP of compound; format: physicochemical; conditions: octanol/water
[2] = biological target: Alpha amylase (Homo sapiens) (UniProt P0DUB6); test: Potency index, ratio of acarbose IC50 to test compound IC50 for inhibition of alpha-amylase (unknown origin) assessed as reduction in conversion of starch to glucose preincubated for 10 mins followed by substrate addition and measured after 20 mins by DNSA reagent based spectrophotometric analysis; conditions: time 30.0 min
[3] = biological target: Hemoglobin HbA (Homo sapiens) (UniProt P69905+P68871); test: Potency index, ratio of gallic acid IC50 to test compound IC50 for inhibition of non-enzymatic glycation in hemoglobin (unknown origin) by spectrophotometric analysis; format: protein-complex assay
Chain of Hemoglobin HbA (Homo sapiens) (P68871 2-147 partner limits assumed): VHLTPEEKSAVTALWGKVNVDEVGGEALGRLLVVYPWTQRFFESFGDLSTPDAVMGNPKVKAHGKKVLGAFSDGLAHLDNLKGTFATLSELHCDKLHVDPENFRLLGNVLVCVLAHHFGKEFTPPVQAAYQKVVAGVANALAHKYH
Chain of Hemoglobin HbA (Homo sapiens) (P69905 2-142 limits assumed): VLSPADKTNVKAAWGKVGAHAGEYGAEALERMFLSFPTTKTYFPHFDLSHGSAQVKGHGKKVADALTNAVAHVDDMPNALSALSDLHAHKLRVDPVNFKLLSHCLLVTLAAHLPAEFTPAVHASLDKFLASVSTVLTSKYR

Chain of Hemoglobin HbA (P69905 whole entry): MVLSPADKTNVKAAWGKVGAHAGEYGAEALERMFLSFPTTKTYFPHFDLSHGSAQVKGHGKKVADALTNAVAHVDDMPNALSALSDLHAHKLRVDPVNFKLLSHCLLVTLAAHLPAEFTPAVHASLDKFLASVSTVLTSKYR
Chain of Hemoglobin HbA (P68871 whole entry): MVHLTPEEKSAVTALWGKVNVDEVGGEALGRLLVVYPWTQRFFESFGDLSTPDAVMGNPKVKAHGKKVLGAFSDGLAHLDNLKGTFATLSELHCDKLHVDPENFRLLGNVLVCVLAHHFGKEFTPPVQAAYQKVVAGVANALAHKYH

SMILES	IC50 (Alpha amylase)	IC50 (Hemoglobin HbA)	logP [1]	Ratio IC50 [2]	Ratio IC50 [3]
Cc1cc(Cn2nnc(Cc3ccccc3)n2)n[nH]1	5.59 mg/mL (≈ 22 mM)	1060 µM	2.5	–	–
CCn1nc(Cn2nnc(-c3ccccn3)n2)cc1C	0.54 mg/mL (≈ 2.01 mM)	2520 µM	2.08	–	–
CCn1nc(Cn2nnnc2-c2ccccn2)cc1C	1.13 10^-4mg/ml	223 µM	1.34	3010	2.8
CCn1nc(Cn2nnc(Cc3ccccc3)n2)cc1C	2.36 mg/mL (≈ 8.36 mM)	1970 µM	2.88	–	–
O=C(O)c1cc(O)c(O)c(O)c1 [GALLIC ACID]	–	999 µM	–	–	–
CCn1nc(Cn2nnnc2Cc2ccccc2)cc1C	0.023 mg/mL (≈ 0.0815 mM)	1200 µM	2.1	15	–
Cc1cc(Cn2nnnc2-c2ccccn2)n[nH]1	4.82 10^-3mg/ml	352 µM	0.86	70	2
Cc1cc(Cn2nnnc2Cc2ccccc2)n[nH]1	1.97 mg/mL (≈ 7.75 mM)	1020 µM	1.62	–	–
Cc1cc(Cn2nnc(-c3ccccn3)n2)n[nH]1	0.95 mg/mL (≈ 3.94 mM)	1950 µM	1.69	–	–
